This is an account of results in US20140058103A1, “Inhibitors of PI3K-Delta and Methods of Their Use and Manufacture” (Exelixis, Inc., priority 2010, published 2014).

Each structure is given as a SMILES string.

In the experiment the target is PI3K delta (Homo sapiens, UniProt O00329). The experiment is described as follows: Luciferase-coupled chemiluminescence kinase assay (ATP consumption, KinaseGlo). It counts as biochemical. The essentials: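 Compound, kinase and ATP (≤ KM) reacted 2 h at ambient temperature, then remaining ATP quantified with luciferase-luciferin (KinaseGlo) luminescence as percent consumed.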
Sequence of PI3K delta (O00329 whole entry): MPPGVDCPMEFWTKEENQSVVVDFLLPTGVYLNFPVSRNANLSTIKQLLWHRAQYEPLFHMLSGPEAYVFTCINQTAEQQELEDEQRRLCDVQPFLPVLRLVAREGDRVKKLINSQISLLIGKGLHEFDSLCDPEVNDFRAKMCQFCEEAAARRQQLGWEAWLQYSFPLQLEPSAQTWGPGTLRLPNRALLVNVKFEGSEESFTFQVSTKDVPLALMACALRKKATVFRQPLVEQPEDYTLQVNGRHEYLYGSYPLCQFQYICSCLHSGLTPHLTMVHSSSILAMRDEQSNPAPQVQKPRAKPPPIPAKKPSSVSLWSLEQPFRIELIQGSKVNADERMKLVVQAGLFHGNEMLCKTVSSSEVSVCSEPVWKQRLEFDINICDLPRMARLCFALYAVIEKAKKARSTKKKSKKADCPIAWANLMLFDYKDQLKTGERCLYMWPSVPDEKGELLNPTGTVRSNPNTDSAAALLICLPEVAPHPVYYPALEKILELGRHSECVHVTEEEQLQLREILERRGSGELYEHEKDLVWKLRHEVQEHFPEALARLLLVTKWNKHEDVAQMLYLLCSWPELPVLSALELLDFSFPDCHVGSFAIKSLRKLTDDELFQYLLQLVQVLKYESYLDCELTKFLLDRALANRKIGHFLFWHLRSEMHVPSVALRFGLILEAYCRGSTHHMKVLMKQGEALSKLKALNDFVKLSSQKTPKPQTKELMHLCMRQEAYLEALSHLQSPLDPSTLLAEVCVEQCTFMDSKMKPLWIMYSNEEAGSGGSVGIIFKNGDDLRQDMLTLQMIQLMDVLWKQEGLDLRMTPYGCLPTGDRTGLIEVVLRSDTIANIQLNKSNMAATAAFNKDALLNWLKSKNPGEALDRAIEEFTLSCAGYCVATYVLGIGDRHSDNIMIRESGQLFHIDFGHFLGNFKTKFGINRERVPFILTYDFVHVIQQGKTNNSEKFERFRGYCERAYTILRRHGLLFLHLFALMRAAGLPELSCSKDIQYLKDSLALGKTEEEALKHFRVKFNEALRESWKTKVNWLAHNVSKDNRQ
Sequence of PI3K delta (P27986 whole entry partner): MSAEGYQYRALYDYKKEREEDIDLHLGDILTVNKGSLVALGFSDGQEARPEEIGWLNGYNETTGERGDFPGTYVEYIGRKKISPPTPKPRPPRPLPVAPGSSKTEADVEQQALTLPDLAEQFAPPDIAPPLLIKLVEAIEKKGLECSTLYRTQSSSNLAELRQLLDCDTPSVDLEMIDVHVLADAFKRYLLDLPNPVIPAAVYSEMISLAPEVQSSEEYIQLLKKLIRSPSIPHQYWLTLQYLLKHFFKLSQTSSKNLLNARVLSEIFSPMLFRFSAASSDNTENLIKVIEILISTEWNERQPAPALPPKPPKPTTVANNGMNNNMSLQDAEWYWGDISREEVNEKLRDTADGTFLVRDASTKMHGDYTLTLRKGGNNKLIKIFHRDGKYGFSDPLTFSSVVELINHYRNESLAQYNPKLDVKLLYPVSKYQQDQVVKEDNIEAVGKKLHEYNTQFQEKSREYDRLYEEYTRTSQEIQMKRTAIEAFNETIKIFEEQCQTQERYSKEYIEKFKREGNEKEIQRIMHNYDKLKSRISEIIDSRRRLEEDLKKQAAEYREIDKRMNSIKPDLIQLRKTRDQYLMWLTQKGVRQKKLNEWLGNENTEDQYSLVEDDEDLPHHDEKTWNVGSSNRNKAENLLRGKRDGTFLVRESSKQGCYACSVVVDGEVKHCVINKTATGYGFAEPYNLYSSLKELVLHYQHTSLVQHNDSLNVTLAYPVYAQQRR
In general terms: Kinase-Glo reads ATP consumption through a luciferase reaction.
In the case of `Cc1cccc(C(=O)NCc2ccccc2N2CCN(c3ncnc4c3nc(-c3cnn(C)c3)n4C)CC2)c1` [Compound 363, 3-methyl-N-[(2-{4-[9-methyl-8-(1-methyl-1H-pyrazol-4-yl)-9H-purin-6-yl]piperazin-1-yl}phenyl)methyl]benzamide], the IC50 was in the range of 250 to 500 nM.
In the case of `Cn1cc(-c2nc3c(N4CCN(c5ccccc5CNS(=O)(=O)c5ccc6ccccc6c5)CC4)ncnc3n2C)cn1` [Compound 364, N-[(2-{4-[9-methyl-8-(1-methyl-1H-pyrazol-4-yl)-9H-purin-6-yl]piperazin-1-yl}phenyl)methyl]naphthalene-2-sulfonamide] it was 500 to 1500 nM; in that of `CN(C)c1ccc(-c2nc3c(N4CCC(n5c(=O)[nH]c6ncccc65)CC4)ncnc3n2C)cn1` [Compound 365, 1-(1-{8-[6-(dimethylamino)pyridin-3-yl]-9-methyl-9H-purin-6-yl}piperidin-4-yl)-1,3-dihydro-2H-imidazo[4,5-b]pyridin-2-one], < 50 nM.
`CCn1cc(-c2nc3c(N4CCC(c5c[nH]c6ccccc56)CC4)ncnc3n2C)cn1` [Compound 366, 8-(1-ethyl-1H-pyrazol-4-yl)-6-[4-(1H-indol-3-yl)piperidin-1-yl]-9-methyl-9H-purine]: the IC50 is 250 to 500 nM.
As to `CCn1cc(-c2nc3c(N4CCN(S(=O)(=O)c5ccccc5)CC4)ncnc3n2C)cn1` [Compound 367, 8-(1-ethyl-1H-pyrazol-4-yl)-9-methyl-6-[4-(phenylsulfonyl)piperazin-1-yl]-9H-purine], the IC50 lay within 50 to 250 nM.
In the case of `CCn1cc(-c2nc3c(N4CCN(c5ccccc5)CC4)ncnc3n2C)cn1` [Compound 368, 8-(1-ethyl-1H-pyrazol-4-yl)-9-methyl-6-(4-phenylpiperazin-1-yl)-9H-purine] it was 500 to 1500 nM; in that of `Cc1ccc(S(=O)(=O)N2CCN(c3ncnc4c3nc(-c3cnn(C)c3)n4C)CC2)cc1` [Compound 370, 9-methyl-6-{4-[(4-methylphenyl)sulfonyl]-piperazin-1-yl)-8-(1-methyl-1H-pyrazol-4-yl)-9H-purine], 500 to 1500 nM.
Under `Cn1cc(-c2nc3c(N4CCN(S(=O)(=O)Cc5ccccc5)CC4)ncnc3n2C)cn1` [Compound 371, 9-methyl-8-(1-methyl-1H-pyrazol-4-yl)-6-{4-[(phenylmethyl)sulfonyl]piperazin-1-yl)-9H-purine] stands 250 to 500 nM; under `Cn1cc(-c2nc3c(N4CCN(S(=O)(=O)c5ccc(F)cc5)CC4)ncnc3n2C)cn1` [Compound 372, 6-{4-[(4-fluorophenyl)sulfonyl]piperazin-1-yl}-9-methyl-8-(1-methyl-1H-pyrazol-4-yl)-9H-purine], 500 to 1500 nM.
As for `Cn1cc(-c2nc3c(N4CCN(S(=O)(=O)c5ccc(Cl)cc5)CC4)ncnc3n2C)cn1` [Compound 374, 6-{4-[(4-chlorophenyl)sulfonyl]piperazin-1-yl)-9-methyl-8-(1-methyl-1H-pyrazol-4-yl)-9H-purine], the IC50 lay within 500 to 1500 nM.
Under `Cn1cc(-c2nc3c(N4CCN(S(=O)(=O)c5ccccc5Cl)CC4)ncnc3n2C)cn1` [Compound 375, 6-{4-[(2-chlorophenyl)sulfonyl]piperazin-1-yl}-9-methyl-8-(1-methyl-1H-pyrazol-4-yl)-9H-purine] stands 250 to 500 nM.
In the case of `COc1ccc(OC)c(S(=O)(=O)N2CCN(c3ncnc4c3nc(-c3cnn(C)c3)n4C)CC2)c1` [Compound 376, 6-(4-([2,5-bis(methyloxy)phenyl]sulfonyl}-piperazin-1-yl)-9-methyl-8-(1-methyl-1H-pyrazol-4-yl)-9H-purine], the IC50 was 250 to 500 nM.
Under `Cn1cc(-c2nc3c(N4CCN(S(=O)(=O)c5cccc(C(F)(F)F)c5)CC4)ncnc3n2C)cn1` [Compound 377, 9-methyl-8-(1-methyl-1H-pyrazol-4-yl)-6-(4-{[3-(trifluoromethyl)phenyl]sulfonyl}-piperazin-1-yl)-9H-purine] stands 250 to 500 nM; under `Cn1cc(-c2nc3c(N4CCN(S(=O)(=O)c5ccccc5C(F)(F)F)CC4)ncnc3n2C)cn1` [Compound 378], 50 to 250 nM.
In the case of `Cn1cc(-c2nc3c(N4CCN(S(=O)(=O)c5cc(Cl)ccc5Cl)CC4)ncnc3n2C)cn1` [Compound 379, 6-{4-[(2,5-dichlorophenyl)sulfonyl]piperazin-1-yl)-9-methyl-8-(1-methyl-1H-pyrazol-4-yl)-9H-purine] it was 50 to 250 nM; in that of `Cn1cc(-c2nc3c(N4CCN(S(=O)(=O)c5ccc(Cl)c(Cl)c5)CC4)ncnc3n2C)cn1` [Compound 380, 6-{4-[(3,4-dichlorophenyl)sulfonyl]piperazin-1-yl}-9-methyl-8-(1-methyl-1H-pyrazol-4-yl)-9H-purine], 50 to 250 nM.
In the case of `Cn1cc(-c2nc3c(N4CCN(S(=O)(=O)c5ccccc5C#N)CC4)ncnc3n2C)cn1` [Compound 381, 2-({4-[9-methyl-8-(1-methyl-1H-pyrazol-4-yl)-9H-purin-6-yl]piperazin-1-yl}sulfonyl)benzonitrile] it was 250 to 500 nM; in that of `Cn1cc(-c2nc3c(N4CCN(S(=O)(=O)c5cccc(C#N)c5)CC4)ncnc3n2C)cn1` [Compound 382, 3-({4-[9-methyl-8-(1-methyl-1H-pyrazol-4-yl)-9H-purin-6-yl]piperazin-1-yl)sulfonyl)benzonitrile], 250 to 500 nM; in that of `Cn1cc(-c2nc3c(N4CCN(S(=O)(=O)c5ccc(F)cc5F)CC4)ncnc3n2C)cn1` [Compound 383, 6-{4-[(2,4-difluorophenyl)sulfonyl]piperazin-1-yl)-9-methyl-8-(1-methyl-1H-pyrazol-4-yl)-9H-purine], 500 to 1500 nM.
With `CC(=O)c1ccc(S(=O)(=O)N2CCN(c3ncnc4c3nc(-c3cnn(C)c3)n4C)CC2)cc1` [Compound 384, 1-[4-({4-[9-methyl-8-(1-methyl-1H-pyrazol-4-yl)-9H-purin-6-yl]piperazin-1-yl)sulfonyl)phenyl]ethanone], the concentration for half-maximal inhibition (IC50) is 500 to 1500 nM.
As for `COc1cc(C)ccc1S(=O)(=O)N1CCN(c2ncnc3c2nc(-c2cnn(C)c2)n3C)CC1` [Compound 385, 9-methyl-6-(4-{[4-methyl-2-(methyloxy)phenyl]sulfonyl}-piperazin-1-yl)-8-(1-methyl-1H-pyrazol-4-yl)-9H-purine], the IC50 lay in the range of 500 to 1500 nM.
In the case of `Cc1cccc(Cl)c1S(=O)(=O)N1CCN(c2ncnc3c2nc(-c2cnn(C)c2)n3C)CC1` [Compound 386, 6-{4-[(2-chloro-6-methylphenyl)sulfonyl]piperazin-1-yl)-9-methyl-8-(1-methyl-1H-pyrazol-4-yl)-9H-purine] it was 250 to 500 nM; in that of `COc1ccc(S(=O)(=O)N2CCN(c3ncnc4c3nc(-c3cnn(C)c3)n4C)CC2)cc1OC` [Compound 387, 6-(4-{[3,4-bis(methyloxy)phenyl]sulfonyl}-piperazin-1-yl)-9-methyl-8-(1-methyl-1H-pyrazol-4-yl)-9H-purine], 500 to 1500 nM.
Under `COc1ccc(Cl)cc1S(=O)(=O)N1CCN(c2ncnc3c2nc(-c2cnn(C)c2)n3C)CC1` [Compound 388, 6-(4-{[5-chloro-2-(methyloxy)phenyl]sulfonyl}-piperazin-1-yl)-9-methyl-8-(1-methyl-1H-pyrazol-4-yl)-9H-purine] stands 50 to 250 nM.
In the case of `Cn1cc(-c2nc3c(N4CCN(S(=O)(=O)c5cccc(Cl)c5Cl)CC4)ncnc3n2C)cn1` [Compound 389, 6-{4-[(2,3-dichlorophenyl)sulfonyl]piperazin-1-yl}-9-methyl-8-(1-methyl-1H-pyrazol-4-yl)-9H-purine] it was 250 to 500 nM; in that of `Cn1cc(-c2nc3c(N4CCN(S(=O)(=O)c5cccnc5Cl)CC4)ncnc3n2C)cn1` [Compound 390, 6-{4-[(2-chloropyridin-3-yl)sulfonyl]piperazin-1-yl}-9-methyl-8-(1-methyl-1H-pyrazol-4-yl)-9H-purine], 500 to 1500 nM; in that of `Cn1cc(-c2nc3c(N4CCN(S(=O)(=O)c5c(Cl)cccc5Cl)CC4)ncnc3n2C)cn1` [Compound 391, 6-{4-[(2,6-dichlorophenyl)sulfonyl]piperazin-1-yl}-9-methyl-8-(1-methyl-1H-pyrazol-4-yl)-9H-purine], 250 to 500 nM.
In turn, `Cn1cc(-c2nc3c(N4CCN(S(=O)(=O)c5ccc(Cl)cc5Cl)CC4)ncnc3n2C)cn1` [Compound 392, 6-{4-[(2,4-dichlorophenyl)sulfonyl]piperazin-1-yl}-9-methyl-8-(1-methyl-1H-pyrazol-4-yl)-9H-purine] yielded a half-maximal inhibitory concentration (IC50) of 500 to 1500 nM.
Under `Cc1c(-c2nc3c(N4CCC5(CC4)C(=O)Nc4ccccc45)ncnc3n2C)cnn1C` [Compound 393, 1′-(8-(1,5-dimethyl-1H-pyrazol-4-yl)-9-methyl-9H-purin-6-yl)spiro[indoline-3,4′-piperidin]-2-one] stands 500 to 1500 nM.
Under `Cc1[nH]ncc1-c1nc2c(N3CCC(n4c(=O)[nH]c5ncccc54)CC3)ncnc2n1C` [Compound 394, 1-{1-[9-methyl-8-(5-methyl-1H-pyrazol-4-yl)-9H-purin-6-yl]piperidin-4-yl}-1,3-dihydro-2H-imidazo[4,5-b]pyridin-2-one] stands < 50 nM; under `Cn1c(C(=O)NCCc2ccccc2)nc2c(N3CCC4(CC3)C(=O)Nc3ccccc34)ncnc21` [Compound 395, 9-methyl-6-(2-oxo-1,2-dihydro-1′H-spiro[indole-3,4′-piperidin]-1′-yl)-N-(2-phenylethyl)-9H-purine-8-carboxamide], 500 to 1500 nM; under `Cn1c(C(=O)N2CC[C@H](F)C2)nc2c(N3CCC(n4c(=O)[nH]c5ccccc54)CC3)ncnc21` [Compound 396, 1-[1-(8-{[(3S)-3-fluoropyrrolidin-1-yl]carbonyl)-9-methyl-9H-purin-6-yl)piperidin-4-yl]-1,3-dihydro-2H-benzimidazol-2-one], 50 to 250 nM.
As to `CN(C)CCN1C(=O)C2(CCN(c3ncnc4c3nc(C(=O)NCC3CC3)n4C)CC2)c2ccccc21` [Compound 397, N-(cyclopropylmethyl)-6-{1-[2-(dimethylamino)ethyl]-2-oxo-1,2-dihydro-1′H-spiro[indole-3,4′-piperidin]-1′-yl}-9-methyl-9H-purine-8-carboxamide], the half-maximal inhibitory concentration (IC50) is 500 to 1500 nM.

For orientation: IC50 means the concentration that gives 50% inhibition. Low readings indicate inhibition by little substance, high ones a need for much substance.
